# Data from paper PMC5733122, “Purification, Characterization, and Mode of Action of Pentocin JL-1, a Novel Bacteriocin Isolated from Lactobacillus pentosus, against Drug-Resistant Staphylococcus aureus” (BioMed Research International, 2017).
# Test system: MRSA GIM1.771
# Assay: Agar-well diffusion test
# Assay type: cell-based, Staphylococcus aureus
# Details: pH 5.5
# Procedure: The intestinal tracts of C. punctatum (grey carpet shark) were dissected and homogenized in 20 mL saline solution under sterile conditions and were then plated in serial dilutions in deMan, Rogosa, and Sharpe (MRS) medium. The plates were incubated aerobically at 30°C for 24 h. Several colonies were picked at random and incubated again in MRS broth. For screening for bacteriocin-producing strains, the agar-well diffusion test was used to detect antimicrobial activity in cell-free supernatants (filtered through a 0.22 μm Millipore filter) obtained by centrifugation (10,000g, 30 min, 4°C) after 18, 36, 60, and 72 h incubation. The Gram-positive strain MRSA GIM 1.771 and the Gram-negative strain Escherichia coli O157:H7 GIM 1.707 were used as indicator strains. Before the experiments, the indicator strains were grown to 10^6 CFU/mL. Then, 1 mL of the culture was mixed with 100 mL soft agar medium and poured onto individual Petri dishes. Subsequently, 8 mm diameter wells were punched onto the plates, and each well was filled with 100 μL of the cell-free supernatants under sterile conditions. The plates were incubated overnight at their respective optimum temperatures, and the clear zones of inhibition were measured in diameter and indicated the presence of antimicrobial activity. In our study, all bacteria culture media and chemical reagents were supplied by Sigma-Aldrich (USA).
# The agar-well diffusion test as described previously was used to detect the antimicrobial activity of the purified pentocin JL-1 (15 μg/mL, pH 5.5). LAB strains were grown in MRS broth at 30°C for 16 h. Other Gram-positive indicator strains were grown in Tryptone Soy Broth (TSB) medium at 37°C and the Gram-negative indicator strains were grown in Luria-Bertani broth medium at 37°C.
# The residual antibacterial activities of the above samples were calculated using the agar-well diffusion test with MRSA GIM 1.771 as the indicator strain. […] Lyophilized pentocin JL-1 dissolved in 0.05% (w/v) acetic acid at 15 μg/mL with pH 5.5 was used as a control in all assays.
substance,measurement,setting,value
"VAKVAR [pentocin JL-1, novel bacteriocin produced by Lactobacillus pentosus JL-1, purified by four-step chromatography, molecular mass 2987.23 Da, cationic and hydrophobic peptide]",Residual inhibitory activity (%),Control: untreated pentocin JL-1 15 μg/mL in 0.05% (w/v) acetic acid,100.00%
same,"Residual inhibitory activity (inhibition zone diameter, mm)","Control: untreated pentocin JL-1 15 μg/mL in 0.05% (w/v) acetic acid, mean ± SD, triplicate",23.9 ± 0.7 mm
same,Antimicrobial activity,"agar-well diffusion, purified pentocin JL-1 15 μg/mL, inhibition zone diameter class incl. 8 mm well",+++ (+++: 20–25)
